Test results published in publication PMC10489644, “In Vitro Evaluation of the Potential for Drug Interactions by Salidroside” (Nutrients, 2023).
Entries after “also recorded” stand apart in the source; their conditions may differ.

Experiments:
OATP1B3 = target: T1, OATP1B3 (Homo sapiens, UniProt Q9NPD5); experiment: Uptake transport inhibition in HEK293-OATP1B3 cells
T1 sequence (Q9NPD5 1-702): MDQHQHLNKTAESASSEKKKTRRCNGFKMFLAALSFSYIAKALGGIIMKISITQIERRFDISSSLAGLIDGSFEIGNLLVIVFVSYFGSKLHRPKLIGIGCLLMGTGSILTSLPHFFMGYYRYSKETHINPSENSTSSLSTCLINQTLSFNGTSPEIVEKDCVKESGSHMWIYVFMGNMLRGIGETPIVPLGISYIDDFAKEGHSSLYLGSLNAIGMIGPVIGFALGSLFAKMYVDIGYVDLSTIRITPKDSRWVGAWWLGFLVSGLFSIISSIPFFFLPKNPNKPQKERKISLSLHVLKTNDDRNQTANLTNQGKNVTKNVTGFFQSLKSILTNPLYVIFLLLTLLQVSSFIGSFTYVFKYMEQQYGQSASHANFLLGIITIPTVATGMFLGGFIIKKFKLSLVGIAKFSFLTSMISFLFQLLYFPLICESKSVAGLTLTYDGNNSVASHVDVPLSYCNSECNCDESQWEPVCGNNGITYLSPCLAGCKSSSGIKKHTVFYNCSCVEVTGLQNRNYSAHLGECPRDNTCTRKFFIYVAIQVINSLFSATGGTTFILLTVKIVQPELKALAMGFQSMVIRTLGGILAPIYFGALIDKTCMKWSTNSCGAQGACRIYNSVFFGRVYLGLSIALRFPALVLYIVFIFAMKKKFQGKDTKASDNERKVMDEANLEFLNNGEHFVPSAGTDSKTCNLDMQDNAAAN
Experimental: HEK293-OATP1B1 and OATP1B3 cells were diluted to 1 × 10^6 cells/mL with DMEM supplemented with 1% non-essential amino acid (NEAA), 10% fetal bovine serum (FBS), 1% PS solution (100 U/mL penicillin-G and 100 μg/mL streptomycin), and seeded on a 96-well BioCoat™ poly-d-lysine plate at a density of 1 × 10^6 cells/mL. […] Once the cells were anchored on the plate, the cell culture was replaced with DMEM containing 10% FBS and 1% PS solution (100 U/mL penicillin-G and 100 μg/mL streptomycin solution) and cultured one day for the uptake and inhibition studies. The cell culture medium was removed from the 96-well plate, then rinsed twice with 0.1 mL/well of pre-warmed transport buffer. The transporter cells containing pre-incubation solution were pre-incubated at 37 °C for 30 min. Then the pre-incubation solution was removed and replaced with 0.1 mL/well of dosing solution containing a substrate, respectively (blank transporter buffer containing a substrate, transport buffer containing a substrate and PC, and transport buffer containing a substrate and salidroside). Then, the transporter cells were incubated at 37 °C for 2 min. After incubation, all solutions in the cells were discarded and rinsed with 0.10 mL/well of ice-cold transport buffer (4 °C) three times. […] All samples were shaken and centrifuged at 4000 rpm at 4 °C for 15 min and the supernatant was removed for future analysis by LC-MS/MS.
(§1) Enzyme activity (%) = PAR with compound/PAR vehicle × 100.

[1] = parameters: method as in PMID 35684130; conditions: multiple oral dose rat study; cited from earlier work
CYP2C8 [2] = target: T2, CYP2C8 (Homo sapiens, UniProt P10632); conditions: microsomes
T2 sequence (P10632 1-490): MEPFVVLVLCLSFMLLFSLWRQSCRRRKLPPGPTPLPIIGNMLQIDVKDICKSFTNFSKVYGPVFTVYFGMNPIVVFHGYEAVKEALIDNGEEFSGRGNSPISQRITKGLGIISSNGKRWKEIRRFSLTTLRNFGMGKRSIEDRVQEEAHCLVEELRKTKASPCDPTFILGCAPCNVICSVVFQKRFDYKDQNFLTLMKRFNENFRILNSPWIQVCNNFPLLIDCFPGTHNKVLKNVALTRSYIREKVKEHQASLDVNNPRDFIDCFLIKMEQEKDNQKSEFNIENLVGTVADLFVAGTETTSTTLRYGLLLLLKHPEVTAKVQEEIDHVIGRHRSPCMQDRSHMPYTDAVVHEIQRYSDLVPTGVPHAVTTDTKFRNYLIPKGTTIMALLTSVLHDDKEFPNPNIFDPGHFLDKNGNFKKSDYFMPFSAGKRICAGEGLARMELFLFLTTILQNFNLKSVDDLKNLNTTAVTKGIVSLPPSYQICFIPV

[3] = parameters: method as in PMID 35684130; conditions: cited from earlier work
recombinant human MAO-A = target: T3, recombinant human MAO-A (Homo sapiens, UniProt P21397); experiment: MAO inhibition, kynuramine oxidation to 4-hydroxyquinoline; type: biochemical
T3 sequence (P21397 1-527): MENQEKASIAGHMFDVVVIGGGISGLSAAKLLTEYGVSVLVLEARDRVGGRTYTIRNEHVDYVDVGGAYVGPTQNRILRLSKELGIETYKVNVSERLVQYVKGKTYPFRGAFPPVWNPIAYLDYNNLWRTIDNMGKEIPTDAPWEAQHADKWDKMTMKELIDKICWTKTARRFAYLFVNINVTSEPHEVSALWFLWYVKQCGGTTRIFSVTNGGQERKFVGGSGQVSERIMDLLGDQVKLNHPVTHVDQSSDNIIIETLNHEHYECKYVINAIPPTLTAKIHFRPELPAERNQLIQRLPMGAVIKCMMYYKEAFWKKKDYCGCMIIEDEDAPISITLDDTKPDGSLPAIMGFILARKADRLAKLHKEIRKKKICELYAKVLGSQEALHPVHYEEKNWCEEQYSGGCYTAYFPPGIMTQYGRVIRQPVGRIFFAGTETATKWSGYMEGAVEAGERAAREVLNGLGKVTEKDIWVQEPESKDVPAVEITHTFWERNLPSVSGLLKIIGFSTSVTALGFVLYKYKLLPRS
Experimental: A total of 99 µL of substrate working solution was added into 1.1 mL incubation tubes and then 1 µL of the test compound/control working solution or DMSO (vehicle control) was added, mixed well, and pre-incubated at 37 °C for 5 min. MAO-A (0.005 mg/mL) and MAO-B (0.02 mg/mL) were pre-incubated in the working solution at 37 °C for 5 min. A total of 100 µL of pre-incubated MAO-A or MAO-B working solution was added to incubation tubes to start the reaction, mixed well, and incubated at 37 °C for 15 min. […] All samples were centrifuged at 4000 rpm at 4 °C for 15 min, then 100 µL supernatant with 100 µL of water was transferred for LC-MS/MS analysis.
as §1
The oxidation of kynuramine to 4-hydroxyquinoline generated was the in vitro marker reaction of MAO-A and MAO-B enzymes.

CYP2C8 [4] = target: T2, CYP2C8; experiment: biochemical

## OC[C@H]1O[C@@H](OCCc2ccc(O)cc2)[C@H](O)[C@@H](O)[C@@H]1O [Salidroside]
OATP1B3
  IC50: > 100 µM
OATP1B3; 100 µM
  mean control activities (% of control activity) / inhibition of OATP1B3: unchanged; also recorded: no inhibition
[1]
  no observed adverse effect level (NOAEL): ≥ 2000 mg/kg/day
CYP2C8 [2]
  IC50 Shift: no shift
[3]
  genotoxicity: not genotoxic
Recombinant human MAO-A
  IC50: > 50 µM
Recombinant human MAO-A; at 50 µM, read-out: maximum % inhibition of MAO-A
  inhibition at 50 µM: 13.3%
CYP2C8 [4]
  IC50: > 50 µM
